Measured values as given in patent US20260257987A1, “COMPOUNDS AND METHOD FOR UPREGULATION OF P53 THROUGH INDUCTION OF MDM2 DEGRADATION” (Georgia State University Research Foundation, Inc., priority 2022, published 2026).
Entries after “also recorded” stand apart in the source; their conditions may differ. Read-outs that look alike come from different tables or passages of the source.

Legend:
[1] = system: EU-1 ALL cells; details: background; cited from earlier work
[2] = system: EU-1 cells; test: Cytotoxicity test (CCK-8 cell viability) in EU-1 cells; assay type: cell-based; details: for IC50: read-out: IC50 (μM) in EU-1 cells; for fold more potent than BW-AQ-238: compared to BW-AQ-238
Procedure: (§1) Cell viability was assessed by using Cell Counting Kit-8 (CCK-8, Dojindo, Japan). EU-1 and RS4;11 cells were cultured in RPMI-1640 medium (Corning, USA); MCF7 and HEK-293 cells were cultured in MEM (Corning, USA); and HeLa and H9c2 cells were cultured in high glucose DMEM (Corning, USA). All the culture mediums were supplemented with 10% fetal bovine serum (Corning, USA) and 100 unit/ml penicillin, and […] streptomycin. For cytotoxicity assays, cells were seeded into 96-well plates at a density of 3× 10^5 cells per well (50 μL). Compounds were dissolved in DMSO (molecular biology grade, Sigma-Aldrich, USA) to make 10 mM stock solutions, which were serially diluted with the culture medium to various concentrations (final DMSO concentration=0.5%). A culture medium (50 μL) containing the anthraquinone analog was added directly to the cell suspension in each well immediately after seeding. After incubation for 24 h at 37° C. in a humidified atmosphere with 5% CO2, 10 μL of CCK-8 solution was added to each well, and the plate was incubated for an additional 2-4 h at 37° C. before measuring the optical density at 450 nm with a microplate reader (PerkinElmer Victor 2, USA). The cell viability of each well was calculated as the percentage of the untreated control according to the manufacturer's manual. All tests were performed in triplicates, and IC50 values were determined with six concentrations by non-linear regression using GraphPad Prism 9.

[3] = system: MDM2 and p53 in EU-1 leukemia cells; test: Western blot of MDM2 and p53 in EU-1 leukemia cells; assay type: cell-based; details: EU-1 cells; for MDM2 and p53 level by Western blot, dose and time dependence: GAPDH loading control
Procedure: Western Blot 5×10^6 cells were seeded in a 6-well plate and incubated for 12 h before the drug-loaded medium was added. The cells were harvested at designated time points, washed with cold PBS, and centrifuged at 1500 rpm×3 min. Then the cells were lysed by adding 100 μL of cold NP-40 buffer (supplied with complete™ protease Inhibitor tablet (Roche, USA)) and 1 mM PMSF (Thermo-Fisher, USA) on ice for 30 min. The cell lysates were centrifuged at 12500×g at 4° C. for 10 min, and the total protein concentration in the supernatant was measured with the BCA assay (Thermo-Fisher, USA). 30 μL of the cell lysate was mixed with 10 μL 4×Laemmli sample buffer and denatured at 95° C. for 5 min. The total protein concentration was adjusted with 1×Laemmli sample buffer. Equal amounts of protein sample were loaded onto a 4-15% gradient SDS-PAGE gel (Bio-rad, USA). After electrophoresis, the protein was transferred to the […] membrane (Bio-rad, USA) with the Trans-Blot Turbo system (Bio-rad, USA). The target protein was probed with the corresponding antibody using iBind Western Systems (Thermo-Fisher, USA), according to the manufacturer's manual. Antibody and dilution profile: MDM2 ((SMP14), 1:500 Santa Cruz, USA); p53 ((DO-1), 1:800, Santa Cruz, USA); GAPDH ((0411), 1:2000, Santa Cruz, USA) and HRP conjugated goat anti-mouse secondary antibody (1:2000, Bio-rad, USA). After incubation with Pierce ECL Plus Substrate (Thermo Scientific), chemiluminescent was detected and imaged with LSA^4000 (GE Healthcare, Fairfield, USA).

[4] = system: RS4;11 cells; test: Cytotoxicity test (CCK-8) in RS4;11 cells; assay type: cell-based; details: Homo sapiens
Procedure: as §1, with “A culture medium (50 μL) containing the anthraquinone analog was added directly to the cell suspension in each well immediately after seeding.” left out

[5] = system: HeLa cells; test: Cytotoxicity test (CCK-8) in HeLa cells; assay type: cell-based; details: for IC50: Homo sapiens, HeLa cells
Procedure: as §1

[6] = system: MCF7 cells; test: Cytotoxicity test (CCK-8) in MCF7 cells; assay type: cell-based; details: Homo sapiens
Procedure: as §1, with “A culture medium (50 μL) containing the anthraquinone analog was added directly to the cell suspension in each well immediately after seeding.” left out

[7] = Thiol (NAC) reactivity study by HPLC; assay type: physicochemical; details: for order of reactivity with NAC (pseudo-first-order kinetics): 0.3 mM analog, 1.5 mM NAC
Procedure: HPLC was performed on Shimadzu LC-20AT HPLC system. Condition: mobile phase A: water with 0.05% TFA; B: acetonitrile with 0.05% TFA; gradient: 5-95% B, 0-10 min; […]; 5% B 12.1-15 min. Column: C18, 3.5 μm, 4.6×150 mm; UV detector monitored at 254 nm. For the thiol reactivity assay, a 0.3 mM solution of AQ-analogs was prepared in 0.5 mL PBS: MeOH (80:20) and warmed at 37° C. Next, 25 μL of NAC (from 30 mM stock solution in PBS) was added to the above solution. The resultant solution had final concentrations of 0.3 mM AQ-analogs and 1.5 mM NAC. 20 μL of the reaction mixture was injected into the HPLC at the designated time intervals. The area percentage values were determined via the integration of the area under the curve (AUC) of the chromatogram.

[8] = system: HEK-293 cells; test: Cytotoxicity test (CCK-8) in HEK-293 cells; assay type: cell-based; details: Homo sapiens, HEK293
Procedure: as §1, with “A culture medium (50 μL) containing the anthraquinone analog was added directly to the cell suspension in each well immediately after seeding.” left out

[9] = system: H9c2 cells; test: Cytotoxicity test (CCK-8) in H9c2 cells; assay type: cell-based; details: Rattus norvegicus
Procedure: as §1, with “A culture medium (50 μL) containing the anthraquinone analog was added directly to the cell suspension in each well immediately after seeding.” left out

[10] = system: RS4;11 cells (wild-type p53); test: Cytotoxicity test of BW-AQ-365 (CCK-8) in RS4;11 cells; assay type: cell-based; details: Homo sapiens; RS4; 11, 25000 cells/well, 48 h, positive control
Procedure: Cell viability was assessed by using Cell Counting Kit-8 (CCK-8, Dojindo, Japan). RS4;11 cells (wild-type p53) were cultured in RPMI-1640 medium (Corning, USA). The culture mediums were supplemented with 10% fetal bovine serum (Corning, USA) and 100 unit/ml penicillin, and […] streptomycin. […] Compounds were dissolved in DMSO (molecular biology grade, Sigma-Aldrich, USA) to make 10 mM stock solutions, which were serially diluted with the culture medium to various concentrations (final DMSO concentration=0.5%). A culture medium (50 μL) containing BW-AQ-365 was added directly to the cell suspension in each well immediately after seeding. After incubation for 24-72 h at 37° C. in a humidified atmosphere with 5% CO2, 10 μL of CCK-8 solution was added to each well, and the plate was incubated for an additional 2-4 h at 37° C. before measuring the optical density at 450 nm with a microplate reader (PerkinElmer Victor 2, USA). The cell viability of each well was calculated as the percentage of the untreated control according to the manufacturer's manual. All tests were performed in triplicates, and IC50 values were determined by non-linear regression using GraphPad Prism 9.0.

[11] = EU-1 cells, 24 h incubation, CCK-8
[12] = EU-1 cells, compared to BW-AQ-295

O=C(CCl)Nc1cc(O)c2c(c1)C(=O)c1cccc(O)c1C2=O [BW-AQ-101, 2-chloro-N-(4,5-dihydroxy-9,10-dioxo-9,10-dihydroanthracen-2-yl)acetamide]
IC50 [1]: ~0.8 µM

O=C(CCl)Nc1cc(OCCO)c2c(c1)C(=O)c1cccc(OCCO)c1C2=O [BW-AQ-238, reference compound]
IC50 [2, 11]: 0.74 ± 0.12 µM

CC(=O)CCOc1cccc2c1C(=O)c1c(OCCC(C)=O)cc(NC(=O)CCl)cc1C2=O [BW-AQ-260, 2-chloro-N-(9,10-dioxo-4,5-bis(3-oxobutoxy)-9,10-dihydroanthracen-2-yl)acetamide]
IC50 [2, 11]: 0.45 µM | fold more potent than BW-AQ-238 ([2]; EU-1 cells): about 3 fold

CC(=O)CCCOc1cccc2c1C(=O)c1c(OCCCC(C)=O)cc(NC(=O)CCl)cc1C2=O [BW-AQ-295, 2-chloro-N-(9,10-dioxo-4,5-bis ((4-oxopentyl)oxy)-9,10-dihydroanthracen-2-yl)acetamide]
MDM2 and p53 level by Western blot, time course ([3]; 0.8 μM): decreased MDM2 and increased p53 level were observed from the 4-h time point | MDM2 level by Western blot ([3]; 2 μM, 6 h): decreased MDM2 to an almost undetectable level | MDM2 and p53 level by Western blot, dose and time dependence [3]: decrease MDM2 level and increase p53 level in a dose- and time-dependent manner; also recorded: downregulate MDM2 and upregulate p53 in EU-1 cells in a time- and dose-dependent fashion; also recorded: downregulation of MDM2 and upregulation p53 | IC50 [4]: 0.69 ± 0.1 µM | fold less potency in HeLa cells compared to MCF7 cells ([5]; HeLa vs MCF7): over 2 fold | IC50 [5]: 2.31 ± 0.08 µM | IC50 [6]: 0.95 ± 0.17 µM | IC50 [2, 11]: 0.43 ± 0.06 µM | fold more potent than BW-AQ-238 ([2]; EU-1 cells): about 3 fold | reactivity towards thiol, in words [7]: reacts with thiol species | order of reactivity with NAC (pseudo-first-order kinetics) ([7]; 37° C. in PBS, HPLC): BW-AQ-350 >BW-AQ-353 >BW-AQ-295 ~ BW-AQ-354 >>BW-AQ-349 | IC50 [8]: 1.16 ± 0.34 µM | IC50 [9]: 1.12 ± 0.2 µM

CC(=O)CCCOc1cc(NC(=O)CCl)cc2c1C(=O)c1c(O)cccc1C2=O [BW-AQ-336, 2-chloro-N-(5-hydroxy-9,10-dioxo-4-((4-oxopentyl)oxy)-9,10-dihydroanthracen-2-yl)acetamide]
IC50 [2, 11]: 0.84 ± 0.02 µM | fold decrease in potency / less potent compared to BW-AQ-295 [2, 12]: about 2 fold

CC(=O)CCCCOc1cccc2c1C(=O)c1c(OCCCCC(C)=O)cc(NC(=O)CCl)cc1C2=O [BW-AQ-345, 2-chloro-N-(9,10-dioxo-4,5-bis ((5-oxohexyl)oxy)-9,10-dihydroanthracen-2-yl)acetamide]
IC50 ([2]; EU-1, 24 h): 0.79 ± 0.03 µM

CC(=O)CCCOc1cccc2c1C(=O)c1c(OCCCC(C)=O)cc(NC(C)=O)cc1C2=O [BW-AQ-349, N-(9,10-dioxo-4,5-bis ((4-oxopentyl)oxy)-9,10-dihydroanthracen-2-yl)acetamide]
IC50 ([2]; EU-1, 24 h): > 100 µM | cytotoxicity in EU-1 cells, in words ([2]; EU-1 cells): lack of activity | stability in presence of NAC ([7]; 37° C. in PBS, HPLC): remained unchanged during the study duration (>400 min) | order of reactivity with NAC (pseudo-first-order kinetics) ([7]; 37° C. in PBS, HPLC): BW-AQ-350 >BW-AQ-353 >BW-AQ-295 ~ BW-AQ-354 >>BW-AQ-349

C#CC(=O)Nc1cc(OCCCC(C)=O)c2c(c1)C(=O)c1cccc(OCCCC(C)=O)c1C2=O [BW-AQ-350, N-(9,10-dioxo-4,5-bis ((4-oxopentyl)oxy)-9,10-dihydroanthracen-2-yl) propiolamide]
MDM2 and p53 level by Western blot, dose and time dependence [3]: induced decrease in MDM2 levels in a dose- and time-dependent fashion; also recorded: downregulate MDM2 and upregulate p53 in EU-1 cells in a time- and dose-dependent fashion; also recorded: downregulation of MDM2 and upregulation p53 | IC50 [4]: 0.52 ± 0.07 µM | IC50 [5]: 4.67 ± 0.25 µM | IC50 [6]: 4.93 ± 0.45 µM | IC50 [2, 11]: 0.19 µM | fold increase in potency compared to BW-AQ-295 [2, 12]: 2 fold | reactivity towards thiol, in words [7]: high reactivity towards nucleophile such as thiol and amino acid | order of reactivity with NAC (pseudo-first-order kinetics) ([7]; 37° C. in PBS, HPLC): BW-AQ-350 >BW-AQ-353 >BW-AQ-295 ~ BW-AQ-354 >>BW-AQ-349 | IC50 [8]: 2.35 ± 0.69 µM | IC50 [9]: ~0.3 µM

C=CC(=O)Nc1cc(OCCCC(C)=O)c2c(c1)C(=O)c1cccc(OCCCC(C)=O)c1C2=O [BW-AQ-353, N-(9,10-dioxo-4,5-bis ((4-oxopentyl)oxy)-9,10-dihydroanthracen-2-yl) acrylamide]
IC50 [2, 11]: 6.21 ± 0.45 µM | fold decrease in potency / less potent compared to BW-AQ-295 [2, 12]: about 15 fold | order of reactivity with NAC (pseudo-first-order kinetics) ([7]; 37° C. in PBS, HPLC): BW-AQ-350 >BW-AQ-353 >BW-AQ-295 ~ BW-AQ-354 >>BW-AQ-349

C=CS(=O)(=O)Nc1cc(OCCCC(C)=O)c2c(c1)C(=O)c1cccc(OCCCC(C)=O)c1C2=O [BW-AQ-354, N-(9,10-dioxo-4,5-bis ((4-oxopentyl)oxy)-9,10-dihydroanthracen-2-yl) ethenesulfonamide]
cytotoxicity in EU-1 cells, in words ([2]; EU-1 cells): more potent than BW-AQ-353 | IC50 [2, 11]: 3.45 ± 0.45 µM | order of reactivity with NAC (pseudo-first-order kinetics) ([7]; 37° C. in PBS, HPLC): BW-AQ-350 >BW-AQ-353 >BW-AQ-295 ~ BW-AQ-354 >>BW-AQ-349

COc1cccc2c1C(=O)c1c(O)c3c(c(O)c1C2=O)C[C@@](O)(C(=O)CO)C[C@@H]3O[C@H]1C[C@H](N)[C@H](O)[C@H](C)O1 [Doxorubicin, reference compound]
IC50 [2, 11]: 0.15 ± 0.02 µM | IC50 [10]: 0.0531 ± 0.0061 µM

C#CC(N)=O [Propiolamide, reference compound]
IC50 [2, 11]: 33.5 ± 7.8 µM
